Data as given in BindingDB's records for doi:10.3109/14756366.2012.712516 (Dumlupinar University, 2013).

How the values were obtained:
Carbonic anhydrase 1 [1] = biological target: T1, Carbonic anhydrase 1 (Homo sapiens, UniProt P00915); test: Hydratase Activity Assay
Carbonic anhydrase 2 [2] = biological target: T2, Carbonic anhydrase 2 (Homo sapiens, UniProt P00918); test: Hydratase Activity Assay
Carbonic anhydrase 1 [3] = biological target: T1, Carbonic anhydrase 1; test: Esterase Activity Assay; details: pH 7.4
Procedure: (§1) The enzymatic reaction, in a total volume of 3.0 mL, contained 1.4 mL of 0.05 M Tris-SO4 buffer (pH 7.4), 1 mL of 3 mM 4-nitrophenylacetate, 0.5 mL H2O and 0.1 mL enzyme solution.

Carbonic anhydrase 2 [4] = biological target: T2, Carbonic anhydrase 2; test: Esterase Activity Assay; details: pH 7.4
Procedure: as §1

Carbonic anhydrase 1 [5] = biological target: T1, Carbonic anhydrase 1; test: CA Activity Assay
Carbonic anhydrase 2 [6] = biological target: T2, Carbonic anhydrase 2; test: CA Activity Assay

T1 sequence (P00915 whole entry): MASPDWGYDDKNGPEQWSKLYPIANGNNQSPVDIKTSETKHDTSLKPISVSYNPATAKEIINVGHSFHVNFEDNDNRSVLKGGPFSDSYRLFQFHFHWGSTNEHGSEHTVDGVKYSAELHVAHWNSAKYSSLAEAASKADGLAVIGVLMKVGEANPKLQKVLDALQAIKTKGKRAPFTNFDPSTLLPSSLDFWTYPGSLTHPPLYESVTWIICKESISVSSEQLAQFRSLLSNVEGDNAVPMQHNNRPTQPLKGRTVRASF

IC50 (Carbonic anhydrase 1 [1]): 1200 nM | IC50 (Carbonic anhydrase 2 [2]): 400 nM | IC50 (Carbonic anhydrase 1 [3]): 1400 nM | IC50 (Carbonic anhydrase 2 [4]): 3000 nM | Ki (Carbonic anhydrase 1 [5]): 1400 nM | Ki (Carbonic anhydrase 2 [6]): 3000 nM
Compound: NS(=O)(=O)c1nnc(NC(=O)c2nn(-c3cccc([N+](=O)[O-])c3)c(-c3ccccc3)c2C(=O)c2ccccc2)s1 [N-[5-(aminosulfonyl)-1,3,4-thiadiazol-2-yl]-4-benzoyl-1-(3-nitrophenyl)-5-phenyl-1H-pyrazole-3-carboxamide (1)]
